Experimental data: patent publication US9174965B2, “Pyrimidinylpiperidinyloxypyridone analogues as GPR119 modulators” (BRISTOL-MYERS SQUIBB COMPANY, priority 2012, dated 2015)
Values after ≈ are worked out from the molar mass of the structure shown.

Key:
in vitro = conditions: human, microsomes, pH 7.4
Method: (§1) Metabolic Stability in Liver Microsomes Test
(§2) The test compound was received as a 3.5 mM stock solution in 100 percent dimethyl sulfoxide (“DMSO”, Sigma Aldritch). The compound solution was diluted to create a 50 μM acetonitrile (“ACN”, Sigma Aldritch) solution containing 1.4% DMSO, which is then used as a 100-fold stock for incubation with microsomes. The test compound, β-nicotinamide adenine dinucleotide phosphate (“NADPH”, AppliChem Inc.) and liver microsome solutions are combined for incubation in three steps:
(§3) 1) 450 μl of liver microsome suspension, protein concentration of 1.1 mg/ml in 100 mM sodium (+)/phosphate (“NaPi”, pH 7.4, Sigma Aldritch) buffer, 5 mM magnesium chloride (“MgCl2, Sigma Aldritch) buffer, is pre-warmed at 37° C.;
(§4) 2) 5 μl of 50 μM test compound (98.6% ACN, 1.4% DMSO) is added to the same tube and pre-incubated at 37° C. for 5 minutes; and
(§5) 3) The reaction is initiated by the addition of 50 μl of pre-warmed 10 mM NADPH solution in 100 mM NaPi, pH 7.4.
(§6) Reaction components are mixed well and then 65 μl are immediately transferred into 130 μl quench/stop solution (zero-time point, T0). The reactions are incubated at 37° C. for 5, 10, 15, 30 and 45 minutes and at each time-point a 65 μl aliquot is transferred into 130 μl of quench solution. ACN containing Internal Standard (100 ng/ml), is used as the quench solution to terminate metabolic reactions. The quenched mixtures are centrifuged at 1500 rpm (˜500×g) in an Allegra X-12 centrifuge, SX4750 rotor (Beckman Coulter Inc., Fullerton, Calif.) for fifteen minutes to pellet denatured microsomes. A volume of 90 μl of supernatant extract, containing the mixture of parent compound and its metabolites, is then transferred to a separate 96-well plate for LC/MS-MS analysis to determine the percent of parent compound that is remaining in the mixture. Peak integration is performed on all samples using the Hepatic Clearance Calculator of QuickCalc by Gubbs, Inc. The percent remaining calculation is performed by comparing the LC-MS/MS peak areas from the samples at each time point to those from the T0 samples for each compound. T1/2 values are calculated from linear regression of the LN (% Remaining) over time, and the slope of that regression (Kel) is used to calculate T1/2, using the following equation: T1/2=−0.693/Kel.

Aqueous solubility assay = assay type: physicochemical; conditions: aqueous buffer, thermodynamic from solid; pH 6.5 phosphate buffer, room temperature, 18-24 h
Method: Approximately 0.75 mg of accurately weighed test compound was added to 1 mL of a pH 6.5 phosphate buffer (50 mM Potassium Phosphate Buffer) to make solutions with a nominal targeted concentration of 1 mM. The vial was then rotated on an orbital shaker at room temperature for 18-24 h. After equilibration time had been met, the test solution was centrifuge filtered through a 0.45 um membrane (Millipore Ultrafree Centrifugal Filters, Durapore PVDF 0.45 um). The filtrate was then analyzed by an Agilent HP1100 HPLC/UV at multiple wavelengths using diode array detection (e.g. 210, 230, 254 and 280 nm) against a previously generated calibration curve to determine compound concentration.
Find below in Table 9 data for compared compounds (See WO 2011/127106 A1).

male C57BL/6J mice = assay: Mouse oral glucose tolerance test; assay type: in vivo; conditions: for Glucose Lowering: at the minimally efficacious dose, plasma glucose AUC in oGTT; for Minimally efficacious Dose: oGTT in C57BL/6J mice
Method: Mouse Oral Glucose Tolerance Test
Twenty four (24) male C57BL/6J mice (8-10 weeks old, average weight 28 g) were randomized into 4 groups (1 mouse/cage) of 6 mice per group based on fed plasma glucose and body weight. Prior to initiating the study, mice were fasted overnight and the next morning they were weighed and placed in the experimental lab. After 30 min in the environment, the mice were bled via tail tip at −60 min and immediately given their first oral administration of vehicle (40% PEG400, 10% Cremophor EL, 50% water) or compound solutions (5 ml/kg). At time 0 the mice were bled and given 50% glucose (2 g/kg) to initiate the oral glucose tolerance test (oGTT). The mice were bled 30, 60 and 120 min after the glucose load. Blood samples were drawn into potassium EDTA, placed on ice during the study and subsequently centrifuged for 10 min at 3000 rpm at 4° C. Plasma samples were diluted 11-fold for glucose analysis in the COBAS MIRA® System (Roche Diagnostics). Area under the curve was calculated from the plasma glucose time course data using the trapezoid rule with fasting plasma glucose as the baseline (GraphPad Prism Software). The statistical significance of the changes in the glucose AUCs resulting from the different treatments was determined by one-way ANOVA followed by Dunnett's test using the vehicle group as the control (JMP software, release 5.1.2).
Find below in Table 7 data for compared compounds (See WO 2009/012275 A1).

[1] = Metabolic stability in liver microsomes test; conditions: human, pH 7.4
Method: as §1, §2, §3, §4, §5, §6

| half-life at 0.5 µM (in vitro) [h] | solubility (Aqueous solubility assay) [µg/mL] | half-life at 0.5 µM [1] [h] | Structure (SMILES) | Glucose Lowering (male C57BL/6J mice) [%] | Minimally efficacious Dose (male C57BL/6J mice) [mg/kg] |
| --- | --- | --- | --- | --- | --- |
| 1.27 | 3 (≈ 5.95 µM) | – | CCCc1cnc(N2CCC(Oc3ccn(-c4ccc(N5CCC(O)C5=O)c(C)n4)c(=O)c3)CC2)nc1 (centres unmarked) [Example 5, 5′-(3-hydroxy-2-oxopyrrolidin-1-yl)-6′-methyl-4-((1-(5-propylpyrimidin-2-yl)piperidin-4-yl)oxy)-2H-[1,2′-bipyridin]-2-one] | −21 | 0.1 |
| – | 1 (≈ 1.86 µM) | 2 | CCCc1cnc(N2CCC(Oc3cc(=O)n(-c4ccc(N5CCC(O)C5=O)c(C)n4)cc3Cl)CC2)nc1 (centres unmarked) [Example 2, 5-chloro-5′-(3-hydroxy-2-oxopyrrolidin-1-yl)-6′-methyl-4-((1-(5-propylpyrimidin-2-yl)piperidin-4-yl)oxy)-2H-[1,2′-bipyridin]-2-one] | −19 | 0.03 |
| 1.57 | 4 (≈ 7.53 µM) | – | Cc1nc(-n2cc(Cl)c(OC3CCN(c4ncc(Cl)cn4)CC3)cc2=O)ccc1N1CCC(O)C1=O (centres unmarked) [Example 1, 5-chloro-4-((1-(5-chloropyrimidin-2-yl)piperidin-4-yl)oxy)-5′-(3-hydroxy-2-oxopyrrolidin-1-yl)-6′-methyl-2H-[1,2′-bipyridin]-2-one] | −36 | 0.03 |
| 1.68 | 7 (≈ 14.1 µM) | – | Cc1nc(-n2ccc(OC3CCN(c4ncc(Cl)cn4)CC3)cc2=O)ccc1N1CCC(O)C1=O (centres unmarked) [Example 6, 4-((1-(5-chloropyrimidin-2-yl)piperidin-4-yl)oxy)-5′-(3-hydroxy-2-oxopyrrolidin-1-yl)-6′-methyl-2H-[1,2′-bipyridin]-2-one] | – | – |
